In patent US20150056269A1, “LIPOSOME COMPRISING AT LEAST ONE CHOLESTEROL DERIVATIVE” (TROPHOS, priority 2011, published 2015):
≈ marks a conversion by molar mass, not a printed value. Like-named read-outs stand apart in the source and are kept apart here.

Key:
[1] = Suspensions of EPC liposomes containing the derivatives of formula (I): concentration in liposomes and particle size; format: physicochemical; settings: for Particle size (nm): EPC liposomes containing the compound; for Concentration of compound in mg/mL in the liposomes: EPC liposomes, after extrusion and solvent removal
Description: A solution of lipids at 250 mg/mL is prepared by dissolving defined quantities of EPC and the compound of formula (I) in tert-butanol or a mixture of tert-butanol and absolute ethanol (v/v). This lipid solution is mixed at a certain temperature with aqueous buffer in order to obtain a final concentration of solvent of 15 to 17% and of product of formula (I) of […].
The large multilamellar vesicles are then extruded at a fixed temperature through 3 polycarbonate filters by 10 consecutive passes. The non encapsulated compound of formula (I) is removed on the filters.
The solvent is eliminated by filtration on membrane by washing with buffer in order to achieve a percentage of final solvent of the order of 0.4%.

[2] = Maximum solubility of the compounds of formula (I) in water and different solvents; format: physicochemical; settings: for solubility: read-out: Maximum solubility (concentration)
Description: The maximum solubility of the compounds of formula (I) was tested in water and different solvents: […]

[3] = liposome based on egg phospholipids, oil or lipid
[4] = Liposome based on egg phospholipids

Row | SMILES | Particle size (nm) [1] [nm] | Concentration of compound in mg/mL in the liposomes [1] [mg/mL] | further results
1 | CC(C)CCC[C@@H](C)[C@H]1CC[C@H]2[C@@H]3CCC4=CC(=NO)CC[C@]4(C)[C@H]3CC[C@]12C [Compound 3, cholest-4-en-3-one oxime] | 88.9 | 12.4 | solubility [2, 3]: 12400 µg/mL (≈ 31000 µM); solubility ([2]; water): 0.1 µg/mL (≈ 0.25 µM)
2 | CC(C)CCC[C@@H](C)[C@H]1CC[C@H]2[C@@H]3CCC4=CC(=O)CC[C@]4(C)[C@H]3CC[C@]12C [Compound 7, cholest-4-en-3-one] |  | 12.1 | 
3 | CC(C)=CCC[C@@H](C)[C@H]1CC[C@H]2[C@@H]3CCC4=CC(=NO)CC[C@]4(C)[C@H]3CC[C@]12C [Compound 4, cholest-4,24-dien-3-one oxime] | 80.7 | 14.5 | solubility ([2]; Intralipid 10, oil or lipid): 340 µg/mL (≈ 855 µM); solubility [2, 3]: 14500 µg/mL (≈ 36500 µM); solubility ([2]; water): 0.1 µg/mL (≈ 0.251 µM)
4 | CC(C)CCC[C@@H](C)[C@H]1CC[C@H]2[C@@H]3CCC4=C(F)C(=NO)CC[C@]4(C)[C@H]3CC[C@]12C [Compound 5, 4-fluoro-cholest-4-en-3-one oxime] | 79.1 | 3.6 | 
5 | CC(C)=CCC[C@@H](C)[C@H]1CC[C@H]2[C@@H]3CCC4=CC(=O)CC[C@]4(C)[C@H]3CC[C@]12C [Compound 9, cholest-4,24-dien-3-one] |  | 10.1 | 

Further lines, with some results ahead:

Row | Particle size (nm) [1] [nm] | Concentration of compound in mg/mL in the liposomes [1] [mg/mL] | SMILES | further results
6 | 79.5 | 9.2 | CC(C)CCCC(C)C1CCC2C3CCC(=NO)C(C)(CCC(C)(C)O)C3CCC12C (centres unmarked) [Compound 2, 3,3-dimethyl-3-hydroxy-3,5-seco-4-norcholestan-5-one oxime] | 
7 |  | 11.4 | CC(C)CCCC(C)C1CCC2C3CCC(=O)C(C)(CCCO)C3CCC12C (centres unmarked) [Compound 8, 3-hydroxy-3,5-seco-4-norcholestan-5-one] | 
8 | 81.4 | 8.1 | CC(C)CCCC(C)C1CCC2C3CCC(=NO)C(C)(CCCO)C3CCC12C (centres unmarked) [Compound 1, 3-hydroxy-3,5-seco-4-norcholestan-5-one oxime] | Maximum solubility (concentration) ([2]; (2-hydroxypropyl)-beta-cyclodextrin, 30% PBS buffer): 700 µg/mL; Maximum solubility (concentration) ([2]; Intralipid 10): 1000 µg/mL; Maximum solubility (concentration) ([2]; Intralipid 10/Solutol HS15/ethanol 92/3/5): 5000 µg/mL; Maximum solubility (concentration) [2, 4]: 30000 µg/mL; Maximum solubility (concentration) ([2]; Soya oil): 6000 µg/mL; Maximum solubility (concentration) ([2]; Water): 1 µg/mL
9 | 84.7 | 8.2 | CCC[C@@]1(C)C(=NO)CC[C@H]2[C@@H]3CC[C@H]([C@H](C)CCCC(C)C)[C@@]3(C)CC[C@@H]21 [Compound 6, 3,5-seco-4-norcholestan-5-one oxime] | Maximum solubility (concentration) ([2]; Intralipid 10): 400 µg/mL; Maximum solubility (concentration) [2, 4]: 8200 µg/mL; Maximum solubility (concentration) ([2]; Water): 0.1 µg/mL
